{"source": "patent US11160807B1", "about": "“Methods, compositions and devices for treating cancer with illudofulvenes” (AF Chemicals, LLC, priority 2018, dated 2021)", "key": {"[1]": {"tested_on": "NIH3T3 MYC+ and NIH3T3 MYC-null", "test": "influence of c-myc expression on cytotoxicity, Cell Count (%)", "details": "for effect of c-myc (MYC) expression on cellular sensitivity: FIG. 4A-4D, cisplatin data not shown"}, "[2]": {"tested_on": "XP-A, XP-B, XP-C, XP-D, XP-E, XP-F, CS-A, CS-B, ERCC1, ERCC5", "test": "DNA damage profile by DNA repair gene", "assay_type": "cell-based", "details": "symbols not defined"}, "[3]": {"tested_on": "MV522 cell line (a lung-derived adenocarcinoma cell line)", "test": "tumor regression (FIG. 1)", "assay_type": "in vivo", "details": "MV522, FIG. 1"}, "[4]": {"tested_on": "8392B Nontarget Cell Line", "test": "two hour toxicity: 2 hr exposure, concentration inhibiting 50% of DNA synthesis activity", "assay_type": "cell-based", "details": "at 26,000 nM ([…] μM)", "method": "(§1) In various embodiments of the invention, the MV522 cell line represents a “target” cell line. […] The two hour toxicity data represents the concentration of a given analog for which a two hour exposure will inhibit 50% of the DNA synthesis activity in a given cell line. The 48 hour exposure data represents the concentration at which a given analog with a 48 hour exposure will inhibit the growth or viability in a given cell line as defined by the standard Trypan Blue Exclusion assay."}, "[5]": {"tested_on": "Mechanism of Multi-drug Resistance", "test": "multidrug resistance: resistance by mechanism of multi-drug resistance"}, "[6]": {"tested_on": "c-myc positive daughter line Myc/Rat1A (Myc/ER)", "test": "role of c-myc in cytotoxicity, c-myc expression induced by 4-hydroxytamoxifen (4HOT)", "assay_type": "cell-based", "details": "FIG. 2", "text": "The expression of c-myc in this cell line is under the control of a modified receptor that responds to 4-hydroxytamoxifen (4HOT)."}, "MV522 Target Cell Line": {"tested_on": "MV522 Target Cell Line", "test": "48 hour exposure, growth or viability by Trypan Blue Exclusion assay", "assay_type": "cell-based", "details": "MV522, 48 h, read-out: Mean IC50 value, MV522 Target Cell Line, 48 hr exposure", "method": "as §1"}, "MCF7 (ER positive)": {"tested_on": "MCF7 (ER positive)", "test": "cytotoxic IC50, 2 hour exposure", "details": "Homo sapiens, MCF7, 2 h, read-out: cytotoxic IC50 values, MCF7 (ER positive)"}, "[7]": {"tested_on": "NCI DTP 60 cell line panel", "test": "NCI DTP 60 Cell Line screen: Growth Inhibition (GI50), Total Growth Inhibition (TGI), Lethal Concentration (LC50/LD)", "assay_type": "cell-based, human", "details": "mean over NCI DTP 60 cell line panel; for Mean LD50 cytotoxic: lethal concentration dose (cytotoxic effect); for GI50: growth inhibition; for Mean TGI cytostatic: total growth inhibition (cytostatic effect)", "method": "In particular, an algorithm based on the obtained in vitro cell culture values (i.e. growth inhibition values (GI50), or the total growth inhibition (TGI), or the lethal concentration (LC50)) of cell lines (e.g., NCI60 cells) subjected to treatment with an illudofulvene, and gene expression is determined in these same cell lines (e.g., by microarray analysis, reverse transcriptase polymerase chain reaction (RT-PCR), quantitative real-time PCR (qPCR), or next generation sequencing). After normalization, genes with, e.g., a Pearson correlation coefficient greater than about 0.5 or below about −0.5 to one of the obtained in vitro cell culture values, can be classified as biomarkers of sensitivity or resistance, respectively. A probability or significance value can also be calculated for the correlation between the obtained in vitro cell culture values (i.e. growth inhibition values (GI50), or the total growth inhibition (TGI), or the lethal concentration (LC50)) and the normalized expression of a specific gene.\nOne can determine the growth inhibition (GI50), total growth inhibition (TGI), or lethal concentration (LC50) for a drug for each of the cell lines in the NCI DTP 60 cell line panel. One can use these 3 values to search for correlations against all gene expressions in all cell lines using the NCI's publicly available CELL MINER Software. Alternatively, one can down load for a specific gene its relative expression in each of the 60 cell lines using the NCI's publicly available COMPARE Software, and performs the expression for a specific gene."}}}
{"smiles": "CC1=C(CO)C2=C(C)C3(CC3)[C@@](C)(O)C(=O)C2=C1", "note": "[Analog 002]", "values": [{"measurement": "Cytotoxicity? 2 hr incubation", "setting": "Prostate carcinomas", "result": "Yes"}, {"measurement": "Cytotoxicity? 48 hr incubation", "setting": "Prostate carcinomas", "result": "Yes"}, {"measurement": "effect of c-myc (MYC) expression on cellular sensitivity", "setting": "[1]", "result": "become sensitive"}, {"measurement": "increase in sensitivity conferred by expression of cellular c-myc", "setting": "[1]; NIH3T3 MYC+ compared to parental c-myc null NIH3T3, based on decrease in cell count, FIG. 3", "result": "greater than 10 fold"}, {"measurement": "Cytotoxicity? 2 hr incubation", "setting": "T cell leukemias", "result": "No"}, {"measurement": "Cytotoxicity? 48 hr incubation", "setting": "T cell leukemias", "result": "Yes"}, {"measurement": "DNA damage profile", "setting": "[2]; Gene XP-C", "result": 0}, {"measurement": "DNA damage profile", "setting": "[2]; Gene XP-E", "result": 0}, {"measurement": "Cytotoxicity? 2 hr incubation", "setting": "Epidermoid", "result": "Yes"}, {"measurement": "Cytotoxicity? 48 hr incubation", "setting": "Epidermoid", "result": "Yes"}, {"measurement": "Cytotoxicity? 2 hr incubation", "setting": "Breast carcinomas", "result": "Yes"}, {"measurement": "Cytotoxicity? 48 hr incubation", "setting": "Breast carcinomas", "result": "Yes"}, {"measurement": "tumor regression", "setting": "[3]", "result": "induce tumor regression"}, {"measurement": "inhibitory effect on the nontarget 8392B cell line", "setting": "[4]", "result": "no inhibitory effect"}, {"measurement": "Resistance to Analog 001/Analog 002", "setting": "[5]; Mechanism: BRCA status", "result": "No"}, {"measurement": "Resistance to Analog 001/Analog 002", "setting": "[5]; Mechanism: Bcl-2 expression", "result": "No"}, {"measurement": "Resistance to Analog 001/Analog 002", "setting": "[5]; Mechanism: DNA repair", "result": "No"}, {"measurement": "Resistance to Analog 001/Analog 002", "setting": "[5]; Mechanism: Gp170/MDR1", "result": "No"}, {"measurement": "Resistance to Analog 001/Analog 002", "setting": "[5]; Mechanism: Gp180/MRP", "result": "No"}, {"measurement": "Resistance to Analog 001/Analog 002", "setting": "[5]; Mechanism: MGMT expression", "result": "No"}, {"measurement": "Resistance to Analog 001/Analog 002", "setting": "[5]; Mechanism: MVP/LRP (vault)", "result": "No"}, {"measurement": "Resistance to Analog 001/Analog 002", "setting": "[5]; Mechanism: Microtubulin alteration", "result": "No"}, {"measurement": "Resistance to Analog 001/Analog 002", "setting": "[5]; Mechanism: Myc expression", "result": "No"}, {"measurement": "Resistance to Analog 001/Analog 002", "setting": "[5]; Mechanism: P21 status", "result": "No"}, {"measurement": "Resistance to Analog 001/Analog 002", "setting": "[5]; Mechanism: P53 status", "result": "No"}, {"measurement": "Resistance to Analog 001/Analog 002", "setting": "[5]; Mechanism: Thiol content/GST pi", "result": "No"}, {"measurement": "Resistance to Analog 001/Analog 002", "setting": "[5]; Mechanism: Topoisomerase I", "result": "No"}, {"measurement": "Resistance to Analog 001/Analog 002", "setting": "[5]; Mechanism: Topoisomerase II", "result": "No"}, {"measurement": "dependence of activity on common resistance mechanisms", "setting": "[5]; multi-medicant resistance phenotype, Bcl-2 over expression, p53 and p21/WAF1 mutations", "result": "independent"}, {"measurement": "Cytotoxicity? 2 hr incubation", "setting": "B cell leukemias", "result": "No"}, {"measurement": "Cytotoxicity? 48 hr incubation", "setting": "B cell leukemias", "result": "Yes"}, {"measurement": "Cytotoxicity? 2 hr incubation", "setting": "Lung carcinomas", "result": "Yes"}, {"measurement": "Cytotoxicity? 48 hr incubation", "setting": "Lung carcinomas", "result": "Yes"}, {"measurement": "Cytotoxicity? 2 hr incubation", "setting": "Fibroblasts (normal)", "result": "No"}, {"measurement": "Cytotoxicity? 48 hr incubation", "setting": "Fibroblasts (normal)", "result": "Yes"}, {"measurement": "sensitivity on expression of c-myc in the presence of 4HOT", "setting": "[6]", "result": "become sensitive"}, {"measurement": "Cytotoxicity? 2 hr incubation", "setting": "Ovarian", "result": "Yes"}, {"measurement": "Cytotoxicity? 48 hr incubation", "setting": "Ovarian", "result": "Yes"}, {"measurement": "Cytotoxicity? 2 hr incubation", "setting": "Myeloid leukemias", "result": "Yes"}, {"measurement": "Cytotoxicity? 48 hr incubation", "setting": "Myeloid leukemias", "result": "Yes"}]}
{"smiles": "CC1=C(COCCO)C2=C(C)C3(CC3)[C@@](C)(O)C(=O)C2=C1", "note": "[Analog 022]", "values": [{"measurement": "IC50", "setting": "MV522 Target Cell Line", "result": "680 ± 180", "unit": "nM"}]}
{"smiles": "CC1=C(CCC(=O)Oc2ccc3c(c2)CCC2C3CC[C@]3(C)C(O)CCC23)C2=C(C)C3(CC3)[C@@](C)(O)C(=O)C2=C1", "note": "(stereo partly shown) [Analog 108]", "values": [{"measurement": "IC50", "setting": "MCF7 (ER positive)", "result": "14.1 ± 2.8", "unit": "µM"}]}
{"smiles": "CC1=C2C(=CC(C)(C)[C@@H]2O)C(=O)[C@](C)(O)C12CC2", "note": "[Illudin M, illudin M, reference compound]", "values": [{"measurement": "Mean LD50 cytotoxic", "setting": "[7]", "result": 291, "unit": "nM"}]}
{"smiles": "CCOCC1=C(C)C=C2C(=O)[C@](C)(O)C3(CC3)C(C)=C21", "note": "[Illudofulvene Analog 0016]", "values": [{"measurement": "GI50", "setting": "[7]", "result": 102, "unit": "nM"}, {"measurement": "Mean LD50 cytotoxic", "setting": "[7]", "result": "4,270 nM"}, {"measurement": "Mean TGI cytostatic", "setting": "[7]", "result": "1,070 nM"}]}
{"smiles": "COC(=O)C1=C(C(=O)OC)C23C=C(C)C1C2=C(C)C1(CC1)[C@@](C)(O)C3=O", "note": "(stereo partly shown) [Illudofulvene Analog 0142]", "values": [{"measurement": "GI50", "setting": "[7]", "result": 447, "unit": "nM"}, {"measurement": "Mean LD50 cytotoxic", "setting": "[7]", "result": "53,700 nM"}, {"measurement": "Mean TGI cytostatic", "setting": "[7]", "result": "4,667 nM"}]}
{"smiles": "CC(=O)OCC1(C)C=C2C(=O)[C@](C)(O)C3(CC3)C(C)=C2C1O", "note": "(stereo partly shown) [Illudofulvene Analog 0159]", "values": [{"measurement": "GI50", "setting": "[7]", "result": 117, "unit": "nM"}, {"measurement": "Mean LD50 cytotoxic", "setting": "[7]", "result": "14,790 nM"}, {"measurement": "Mean TGI cytostatic", "setting": "[7]", "result": "2,090 nM"}]}
{"smiles": "CC[C@H](C)[C@H](NC(=O)[C@H]1CCCCN1C)C(=O)N(COC(=O)CC(C)C)[C@H](C[C@@H](OC(C)=O)c1nc(C(=O)N[C@@H](Cc2ccc(O)cc2)C[C@H](C)C(=O)O)cs1)C(C)C", "note": "[Tubulysin A]", "values": [{"measurement": "Mean LD50 cytotoxic", "setting": "[7]", "result": ">10,000 nM"}]}
{"smiles": "N.N.[Cl][Pt][Cl]", "note": "[cisplatin]", "values": [{"measurement": "effect of c-myc (MYC) expression on cellular sensitivity", "setting": "[1]", "result": "did not alter cellular sensitivity"}]}
{"smiles": "CO[C@@]12[C@H](COC(N)=O)C3=C(C(=O)C(C)=C(N)C3=O)N1C[C@@H]1N[C@@H]12", "note": "[mitomycin C]", "values": [{"measurement": "effect of c-myc (MYC) expression on cellular sensitivity", "setting": "[1]", "result": "did not alter cellular sensitivity"}, {"measurement": "effect of c-myc (MYC) expression on cellular sensitivity", "setting": "[1]; listed as Mitomycin C", "result": "not sensitive"}]}
{"smiles": "CC[C@@]1(O)C(=O)OCc2c1cc1n(c2=O)Cc2cc3c(CN(C)C)c(O)ccc3nc2-1", "note": "[topotecan]", "values": [{"measurement": "effect of c-myc (MYC) expression on cellular sensitivity", "setting": "[1]", "result": "did not alter cellular sensitivity"}, {"measurement": "effect of c-myc (MYC) expression on cellular sensitivity", "setting": "[1]; listed as Topotecan", "result": "not sensitive"}]}
